According to ChEMBL document CHEMBL1125965, “Synthesis and pharmacological evaluation of novel Amino-prostanoids: potent and orally effective thromboxane A2 receptor antagonists” (Bioorg Med Chem Lett, 1991):
Where “and” joins values, the source holds several entries; their conditions need not be identical. Identical values can stand only once.

Legend:
[1] = target: T1, Thromboxane A2 receptor (Homo sapiens, UniProt P21731); assay: In vitro thromboxane A2 receptor antagonism through inhibition of U-46619-induced platelet aggregation in human whole blood; format: functional, tissue-based; conditions: read-out: pA2 (converted)
T1 sequence (P21731 whole entry): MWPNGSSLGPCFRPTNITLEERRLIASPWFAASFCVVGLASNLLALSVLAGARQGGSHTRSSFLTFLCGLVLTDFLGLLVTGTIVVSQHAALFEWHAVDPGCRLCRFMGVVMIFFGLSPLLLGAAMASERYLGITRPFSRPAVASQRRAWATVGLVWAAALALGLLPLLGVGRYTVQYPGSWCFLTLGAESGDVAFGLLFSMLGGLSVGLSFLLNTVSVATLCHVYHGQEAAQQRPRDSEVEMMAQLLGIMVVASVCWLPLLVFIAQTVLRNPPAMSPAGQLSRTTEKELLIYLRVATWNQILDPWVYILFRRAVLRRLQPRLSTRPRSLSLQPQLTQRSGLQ

[2] = target: T2, Thromboxane A2 receptor (Rattus norvegicus, UniProt P34978); assay: In vitro thromboxane A2 receptor antagonism through inhibition of U-46619-induced contraction of rat isolated thoracic aortic strip; format: functional; conditions: read-out: pA2 (converted)
T2 sequence (P34978 whole entry): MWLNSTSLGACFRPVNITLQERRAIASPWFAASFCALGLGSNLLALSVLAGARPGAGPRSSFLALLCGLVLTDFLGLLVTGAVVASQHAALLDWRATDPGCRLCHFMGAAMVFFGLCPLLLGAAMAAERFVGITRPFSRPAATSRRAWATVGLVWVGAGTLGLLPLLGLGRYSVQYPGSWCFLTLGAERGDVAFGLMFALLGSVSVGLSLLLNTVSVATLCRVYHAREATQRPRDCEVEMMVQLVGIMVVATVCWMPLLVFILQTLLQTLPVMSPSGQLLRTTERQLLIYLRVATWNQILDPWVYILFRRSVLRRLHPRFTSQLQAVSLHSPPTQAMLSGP

[3] = target: T3, Thromboxane A2 receptor (Rattus norvegicus) (UniProt P34978); assay: In vitro thromboxane receptor antagonism through inhibition of U-46619-induced contraction of rat isolated thoracic aortic strip; format: functional
T3 sequence (whole entry): T2 sequence (P34978 whole entry)

| Compound | Kb [1] | Kb [2] | pKb [3] |
| --- | --- | --- | --- |
| CNS(=O)(=O)Cc1ccccc1-c1ccc(COC2CC[C@H](N3CCCCCC3)[C@H]2OC/C=C\CCC(=O)O)cc1 (stereo not given in full) | 7.94 nM | 12.6 nM |  |
| O=C(O)CC/C=C\CO[C@H]1C(OCc2ccc(-c3ccccc3)cc2)CC[C@@H]1N1CCCCCC1 (stereo not given in full) | 12.6 nM | 25.1 nM |  |
| CNS(=O)(=O)Cc1ccc(-c2ccc(COC3CC[C@H](N4CCCCCC4)[C@H]3OC/C=C\CCC(=O)O)cc2)cc1 (stereo not given in full) | 3.16 nM | 15.8 nM |  |
| O=C(O)CC/C=C\CO[C@@H]1C(OCc2ccc(-c3ccccc3)cc2)CC[C@@H]1N1CCCCC1 (stereo not given in full) | 39.8 nM | 15.8 nM |  |
| O=C(O)CC/C=C\CO[C@H]1[C@@H](OCc2ccc(-c3ccc(CO)cc3)cc2)CC[C@@H]1N1CCCCCC1 | 3.98 nM | 50.1 nM |  |
| O=C(O)CC/C=C\CO[C@H]1C(OCc2ccc(-c3ccccc3O)cc2)CC[C@@H]1N1CCCCCC1 (stereo not given in full) | 15.8 nM | 20 nM |  |
| O=C(O)CC/C=C\CO[C@H]1C(OCc2ccc(-c3ccc(CO)cc3)cc2)CC[C@@H]1N1CCCCCC1 (stereo not given in full) | 3.16 nM | 20 nM |  |
| NC(=O)Cc1ccccc1-c1ccc(COC2CC[C@H](N3CCCCCC3)[C@H]2OC/C=C\CCC(=O)O)cc1 (stereo not given in full) | 7.94 nM | 158 nM |  |
| O=C(O)CC/C=C\CO[C@H]1[C@@H](OCc2ccc(-c3ccccc3)cc2)CC[C@@H]1N1CCCCC1 | 10 nM and 7.94 nM | 31.6 nM and 50.1 nM |  |
| CC(=O)NCc1ccccc1-c1ccc(COC2CC[C@H](N3CCCCCC3)[C@H]2OC/C=C\CCC(=O)O)cc1 (stereo not given in full) | 25.1 nM | 126 nM |  |
| O=C(O)CC/C=C\CO[C@H]1C(OCc2ccc(-c3ccc(O)cc3)cc2)CC[C@@H]1N1CCCCCC1 (stereo not given in full) | 6.31 nM | 6.31 nM |  |
| O=C(O)CC/C=C\CO[C@@H]1[C@@H](OCc2ccc(-c3ccccc3)cc2)CC[C@@H]1N1CCCCC1 | 100 nM | 1000 nM |  |
| O=C(O)CC/C=C\CO[C@H]1[C@@H](OCc2ccc(-c3cccc(CO)c3)cc2)CC[C@@H]1N1CCCCCC1 | 5.01 nM | 79.4 nM |  |
| CC(=O)NCc1ccc(-c2ccc(COC3CC[C@H](N4CCCCCC4)[C@H]3OC/C=C\CCC(=O)O)cc2)cc1 (stereo not given in full) | 2.51 nM | 20 nM |  |
| NC(=O)Cc1ccc(-c2ccc(COC3CC[C@H](N4CCCCCC4)[C@H]3OC/C=C\CCC(=O)O)cc2)cc1 (stereo not given in full) | 3.98 nM | 20 nM |  |
| O=C(O)CC/C=C\CO[C@H]1[C@@H](OCc2ccc(-c3ccccc3CO)cc2)CC[C@@H]1N1CCCCCC1 | 1.58 nM | 12.6 nM |  |
| NC(=O)c1ccc(-c2ccc(COC3CC[C@H](N4CCCCCC4)[C@H]3OC/C=C\CCC(=O)O)cc2)cc1 (stereo not given in full) | 3.16 nM | 20 nM |  |
| CS(=O)(=O)Nc1ccccc1-c1ccc(CO[C@H]2CC[C@H](N3CCCCCC3)[C@H]2OC/C=C\CCC(=O)O)cc1 | 6.31 nM | 63.1 nM |  |
| O=C(O)CC/C=C\CO[C@H]1[C@H](OCc2ccc(-c3ccccc3CO)cc2)CC[C@@H]1N1CCCCCC1 | 6.31 nM |  | 8.5 |
| NC(=O)Nc1ccccc1-c1ccc(COC2CC[C@H](N3CCCCCC3)[C@H]2OC/C=C\CCC(=O)O)cc1 (stereo not given in full) | 7.94 nM | 63.1 nM |  |
| O=C(O)CC/C=C\CO[C@H]1C(OCc2ccc(-c3ccccc3CCO)cc2)CC[C@@H]1N1CCCCCC1 (stereo not given in full) | 2 nM | 31.6 nM |  |
| O=C(O)CC/C=C\CO[C@H]1C(OCc2ccc(-c3ccccc3)cc2)CC[C@@H]1N1CCCCC1 (stereo not given in full) | 63.1 nM and 15.8 nM |  |  |
| CS(=O)(=O)Nc1ccccc1-c1ccc(COC2CC[C@H](N3CCCCCC3)[C@H]2OC/C=C\CCC(=O)O)cc1 (stereo not given in full) | 10 nM | 3.98 nM |  |
| NC(=O)c1ccccc1-c1ccc(COC2CC[C@H](N3CCCCCC3)[C@H]2OC/C=C\CCC(=O)O)cc1 (stereo not given in full) | 15.8 nM | 15.8 nM |  |
| O=C(O)CC/C=C\CO[C@H]1C(OCc2ccc(-c3cccc(CO)c3)cc2)CC[C@@H]1N1CCCCCC1 (stereo not given in full) | 7.94 nM | 12.6 nM |  |
| CS(=O)(=O)Nc1cccc(-c2ccc(COC3CC[C@H](N4CCCCCC4)[C@H]3OC/C=C\CCC(=O)O)cc2)c1 (stereo not given in full) | 12.6 nM | 50.1 nM |  |
| O=C(O)CC/C=C\CO[C@H]1[C@@H](OCc2ccc(-c3ccccc3)cc2)CC[C@@H]1N1CCCCCC1 | 5.01 nM | 39.8 nM |  |
| O=C(O)CC/C=C\CO[C@H]1C(OCc2ccc(-c3ccccc3CO)cc2)CC[C@@H]1N1CCCCCC1 (stereo not given in full) | 3.16 nM | 6.31 nM |  |
